Data taken from the supplement of paper PMC8253809.

Tests used:
iAstro [1] = astrocyte control; test: EC50 (inflection of fitted growth-inhibition curve) (log10 M)
Outline: (§1)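 Treatment used a pin tool and a 10-point threefold dilution series, mean top concentration 35 μM, run in triplicate on patient-derived pHGG/DIPG cell lines and astrocyte controls in 1% Geltrex-coated 384-well plates. Plates were kept at 37 °C, 5% CO2 for 7 days (iAstro: 3 days). Log2-transformed CellTiter-Glo luminescence was scaled per plate to % activity between negative (solvent) and positive control wells and pooled before fitting. EC50 and maximal response (yFin) came from the three- or four-parameter log-logistic fit chosen by lowest AICc.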

HABS = astrocyte control; test: as above
Outline: as §1

HGGX2 = paediatric high-grade glioma line; test: as above
Outline: as §1

DIPGX37 = H3.3 K27M diffuse intrinsic pontine glioma line; test: as above
Outline: as §1

SUDIPGVI [2] = diffuse intrinsic pontine glioma line; test: as above
Outline: as §1

SUDIPGXIX = diffuse intrinsic pontine glioma line; test: as above
Outline: as §1

HGGX6 = H3.3 G34R paediatric high-grade glioma line; test: as above
Outline: as §1

SUDIPGIV = diffuse intrinsic pontine glioma line; test: as above
Outline: as §1

HGGX42 = H3.3 G34R paediatric high-grade glioma line; test: as above
Outline: as §1

SUDIPGXIII = diffuse intrinsic pontine glioma line; test: as above
Outline: as §1

DIPGX9 = diffuse intrinsic pontine glioma line; test: as above
Outline: as §1

HGGX39 = paediatric high-grade glioma line; test: as above
Outline: as §1

DIPGX29 = H3.3 K27M diffuse intrinsic pontine glioma line; test: as above
Outline: as §1

DIPGX7 = H3.3 K27M diffuse intrinsic pontine glioma line; test: as above
Outline: as §1

SUDIPGXVII = diffuse intrinsic pontine glioma line; test: as above
Outline: as §1

SUDIPGXXI = diffuse intrinsic pontine glioma line; test: as above
Outline: as §1

iAstro [3] = test: area under dose-response curve of % growth inhibition (log2 RLU vs DMSO / staurosporine), 1e-11 to 1e-4 M (% x log10 M); higher = more growth inhibition
Outline: (§2)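 Patient-derived pHGG/DIPG cell lines and astrocytes were plated in 384-well plates coated with 1% Geltrex and treated in triplicate with a 10-point threefold dilution series whose mean top concentration was 35 μM, for 7 days (3 days for iAstro) at 37 °C and 5% CO2. CellTiter-Glo luminescence was log2-transformed and scaled on each plate to % activity between solvent and positive controls. Area under the curve came from the trapezoid rule applied to a fitted log-logistic curve, or to a smoothing spline where the sigmoid fit failed.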

SUDIPGVI [4] = test: as above
Outline: as §2

SMILES | EC50 (log10 M) (iAstro [1]) | EC50 (log10 M) (HABS) | EC50 (log10 M) (HGGX2) | EC50 (log10 M) (DIPGX37) | EC50 (log10 M) (SUDIPGVI [2]) | EC50 (log10 M) (SUDIPGXIX) | EC50 (log10 M) (HGGX6) | EC50 (log10 M) (SUDIPGIV) | EC50 (log10 M) (HGGX42) | EC50 (log10 M) (SUDIPGXIII) | EC50 (log10 M) (DIPGX9) | EC50 (log10 M) (HGGX39) | EC50 (log10 M) (DIPGX29) | EC50 (log10 M) (DIPGX7) | EC50 (log10 M) (SUDIPGXVII) | EC50 (log10 M) (SUDIPGXXI) | area under dose-response curve (iAstro [3]) | area under dose-response curve (SUDIPGVI [4])
CN1CCCN(C(=O)c2cccc(-c3ccc(/C=C4/C(=O)Nc5ccc(Cl)cc54)o3)c2)CC1 [CX-6258] | -5.49 | -5.1 | -5.51 | -5.76 | -5.2 | -5.48 | -5.24 | -5.37 | -5.75 | -5.08 | -5.34 | -5.28 | -5.6 | -5.42 | -5.25 | -7.11 | 168 | 130
COc1cccc2c1C(=O)c1c(O)c3c(c(O)c1C2=O)C[C@@](O)(C(=O)CO)C[C@@H]3O[C@H]1C[C@H](N)[C@H](O)[C@H](C)O1 [DOXORUBICIN] | -7.21 | -7.02 | -6.74 | -6.4 | -5.86 | -7.02 | -5.69 | -6.59 | -6.5 | -5.71 | -6.92 | -5.68 | -5.63 | -6.06 | -5.78 | -8.4 | 78.3 | 159
CCCCc1oc2ccc(NS(C)(=O)=O)cc2c1C(=O)c1ccc(OCCCN(CCCC)CCCC)cc1 [DRONEDARONE] | -5.29 | -4.77 | -5.19 | -5.38 | -4.87 | -5.12 | -5.14 | -5.15 | -5.41 | -4.89 | -5.04 | -5.01 | -5.42 | -5.35 | -4.97 | -5.77 | 134 | 105
CCOC(=O)CCNc1cc(N2CCc3ccccc3CC2)nc(-c2ccccn2)n1 [GSK-J4] | -5.51 | -4.98 | -5 | -4.9 | -4.9 | -4.97 | -4.85 | -5.01 | -4.87 | -4.82 | -4.99 | -4.98 | -4.87 | -5 | -4.99 | -5.9 | 97.7 | 52.4
O=C(c1ccc(Nc2nccc(-c3cc4ccccc4s3)n2)cc1)N1CCC(N2CCCC2)CC1 [IKK 16] | -5.16 | -4.75 | -5.4 | -5.52 | -4.85 | -4.87 | -4.83 | -5.15 | -5.62 | -4.69 | -4.84 | -4.92 | -5.53 | -5.27 | -4.85 | -5.37 | 110 | 111
CC(C)C[C@H](NC(=O)CNC(=O)c1cc(Cl)ccc1Cl)B(O)O [IXAZOMIB] | -7.92 | -7.43 | -6.73 | -7.94 | -7.33 | -7.71 | -7.27 | -7.6 | -7.31 | -7.52 | -7.68 | -7.57 | -6.63 | -7.71 | -7.05 | -7.9 | 264 | 242
